Data taken from patent publication US20150031892A1, “SPHINGOLIPID METABOLITE MIMETICS” (Zhejiang University, priority 2012, published 2015).

Key:
Assay type in all cases: cell-based
HepG2 = experiment: MTT cytotoxicity assay, HepG2 (liver cancer); conditions: Homo sapiens
Description: (§1) Cell survival after exposure to the sphingolipid metabolite mimetics was examined by MTT cytotoxicity assay. HepG2, A431, HeLa, MCF-7 and SA cells (7000 cells/well) were seeded in each well of a 96-well plate for 24 h. New medium was added to give final concentrations of 0 to 200 μM of the sphingolipid metabolite mimetics. Then, 50 μl of 1 mg/ml 3-(4,5-dimethylthiazol-2-yl)-2,5-diphenyltetrazolium bromide (MTT, Sigma-Aldrich Chemical) was added to each well for 4 h incubation at 37° C. The purple formazan formed was then solubilized by DMSO and absorbance at 570 nm was read by a microplate reader (Molecular Devices, Sunnyvale, Calif.).

A431 = experiment: MTT cytotoxicity assay, A431 (squamous carcinoma); conditions: Homo sapiens, A-431
Description: as §1

SA = experiment: MTT cytotoxicity assay, SA (pancreatic cancer as headed)
Description: as §1

MCF-7 = experiment: MTT cytotoxicity assay, MCF-7 (breast cancer); conditions: Homo sapiens, MCF7; Breast Cancer MCF-7, MTT
Description: as §1

SiHa = experiment: MTT cytotoxicity assay, SiHa (ovarian cancer as headed); conditions: Homo sapiens, Cervical Cancer SiHa
SW620 = experiment: MTT cytotoxicity assay, SW620 (colon cancer); conditions: Homo sapiens, SW-620
SW480 = experiment: MTT cytotoxicity assay, SW480 (colon cancer); conditions: Homo sapiens

Row | Compound | IC50 (HepG2) [µM] | IC50 (A431) [µM] | IC50 (SA) [µM] | IC50 (MCF-7) [µM] | IC50 (SiHa) [µM] | IC50 (SW620) [µM] | IC50 (SW480) [µM]
1 | C/C=C/C=C/C(=O)N[C@H](C(=O)NCCCCCCCCCCCCCCCCCC)C(C)O (stereo in doubt) [NZJU12, (2E,4E)-N-((2S,3R)-3-hydroxy-1-oxo-1-(octadecylamino)butan-2-yl)-2,4-hexadienoic acid amide] | 284 ± 8.3 | 187 ± 2.41 | > 200 | 79.6 ± 2.34 | > 200 | ≥ 200 | 196
2 | CCCCCCCCCCCCCCCCCCNC(=O)[C@@H](N)[C@@H](C)O [NZJU4, (2S,3R)-2-Amino-3-hydroxy-N-octadecylbutanamide] | 44.5 ± 3.49 | 21.3 ± 1.72 | – | 27.4 ± 1.8 | 39.5 ± 0.88 | 21.4 ± 1.24 | 27.5 ± 3.03
3 | C/C=C/C=C/C(=O)N[C@H](C(=O)NCCCCCCCCCCCC)[C@@H](C)O [NZJU10, (2E,4E)-N-((2S,3R)-3-hydroxy-1-oxo-1-(dodecylamino)butan-2-yl)-2,4-hexadienoic acid amide] | > 400 | 171 ± 12.1 | 189 ± 12.2 | 37.1 ± 4.11 | > 200 | ≥ 200 | > 200
4 | C/C=C/C=C/C(=O)N[C@H](C(=O)NCCCCCCCCCCCCCC)[C@@H](C)O [NZJU11, (2E,4E)-N-((2S,3R)-3-hydroxy-1-oxo-1-(tetradecylamino)butan-2-yl)-2,4-hexadienoic acid amide] | > 400 | > 200 | 184 ± 1.9 | 27.76 ± 0.14 | > 200 | ≥ 200 | > 200
5 | CCCCCCCCCCCCCCNC(=O)[C@@H](NC(=O)c1ccco1)[C@@H](C)O [NZJU14, N-((2S,3R)-3-hydroxy-1-oxo-1-(tetradecylamino)butan-2-yl)-Furan-2-carboxamide] | > 400 | 190 ± 6.86 | 148 ± 11.6 | 105 ± 5.03 | 127 ± 7.41 | ≥ 200 | 110 ± 5.03
6 | CCCCCCCCCCCCCCCCCCNC(=O)[C@@H](NC(=O)c1ccco1)[C@@H](C)O [NZJU15, N-((2S,3R)-3-hydroxy-1-oxo-1-(octadecylamino)butan-2-yl)-Furan-2-carboxamide] | 42.3 ± 3.73 | 19.9 ± 0.45 | 52.6 ± 6.02 | 21.4 ± 2.4 | 13.3 ± 1.05 | – | 24.4 ± 0.7
7 | CCCCCCCCCCCCCCNC(=O)[C@@H](NC(=O)c1ccccc1)[C@@H](C)O [NZJU17, N-((2S,3R)-3-hydroxy-1-oxo-1-(tetradecylamino)butan-2-yl)-benzamide] | 54.2 ± 3.95 | 118 ± 9.09 | 56 ± 7.43 | 24.8 ± 6.75 | > 200 | ≥ 200 | ≥ 200
8 | CCCCCCCCCCCCCCCCCCNC(=O)[C@@H](NC(=O)c1ccccc1)[C@@H](C)O [NZJU18, N-((2S,3R)-3-hydroxy-1-oxo-1-(octadecylamino)butan-2-yl)-benzamide] | > 400 | 113 ± 7.87 | > 400 | 31.7 ± 6.55 | 38.2 ± 2.52 | ≥ 200 | 36.47 ± 0.23
9 | CCCCCCCCCCCCCC(=O)N[C@H](C(=O)Nc1ccccc1)[C@@H](C)O [NZJU19, N-((2S,3R)-3-Hydroxy-1-oxo-1-(benzamino)butan-2-yl)-tetradecyl acid amide] | > 400 | > 200 | > 200 | > 400 | > 200 | ≥ 200 | > 200
10 | CCCCCCCCCCCCNC(=O)[C@@H](NC(=O)/C=C/c1ccccc1)[C@@H](C)O [NZJU24, (E)-N-((2S,3R)-3-hydroxy-1-oxo-1-(dodecylamino)butan-2-yl)-3-phenyl acrylic acid amide] | > 200 | > 200 | 154.8 ± 1.16 | > 200 | > 200 | ≥ 200 | > 200
11 | CCCCCCCCCCCCCCNC(=O)[C@@H](NC(=O)/C=C/c1ccccc1)[C@@H](C)O [NZJU25, (E)-N-((2S,3R)-3-hydroxy-1-oxo-1-(tetradecylamino)butan-2-yl)-3-phenyl acrylic acid amide] | 150 ± 4.37 | 64.9 ± 4.87 | 80.9 ± 1.9 | 64.6 ± 4.54 | 35.8 ± 0.68 | ≥ 200 | 86.9
12 | CCCCCCCCCCCCCCCCCCNC(=O)[C@@H](NC(=O)c1nccc2ccccc12)[C@@H](C)O [NZJU32, N-((2S,3R)-3-hydroxy-1-oxo-1-(octadecylamino)butan-2-yl)-isoquinoline-1-carboxamide] | 96.9 ± 6.77 | 44.1 ± 2.02 | 49.1 ± 4.72 | 30.8 ± 0.67 | 51.2 ± 3.46 | 136 ± 13.3 | 30.7
13 | CCCCCCCCCCCCCCCCCCNC(=O)[C@@H](NC(=O)c1cc2ccccc2o1)[C@@H](C)O [NZJU38, N-((2S,3R)-3-hydroxy-1-oxo-1-(octadecylamino)butan-2-yl)-benzofuran-2-carboxamide] | > 200 | 78.8 ± 6.99 | 162 ± 4.55 | 126 ± 7.19 | > 200 | – | > 200
14 | CCCCCCCCNC(=O)[C@@H](NC(=O)c1nccc2ccccc12)[C@@H](C)O [NZJU43, N-((2S,3R)-3-hydroxy-1-oxo-1-(octylamino)butan-2-yl)-isoquinoline-1-carboxamide] | 88.2 ± 1.92 | 26.9 ± 2.81 | 22.9 ± 2.59 | 63.2 ± 4.73 | 66 ± 5.48 | 67.75 ± 0.099 | –
15 | CCCCCCCCCCCCNC(=O)[C@@H](NC(=O)c1cc2ccccc2n1C)[C@@H](C)O [NZJU50, N-((2S,3R)-3-hydroxy-1-oxo-1-(dodecylamino)butan-2-yl)-(N-methyl)indole-2-carboxamide] | > 200 | 169 ± 14.7 | 31.3 ± 1.14 | – | > 200 | – | 36 ± 2.87
16 | CCCCCCCCCCCCCCCCCCNC(=O)[C@@H](NC(=O)c1cc2ccccc2n1C)[C@@H](C)O [NZJU52, N-((2S,3R)-3-hydroxy-1-oxo-1-(octadecylamino)butan-2-yl)-(N-methyl)indole-2-carboxamide] | > 200 | 61 ± 1.82 | 36.37 ± 0.19 | – | 113 ± 12 | – | 36 ± 3.23
17 | CCCCCCCCCCCCNC(=O)[C@@H](NC(=O)c1ccc2cc(O)ccc2c1)[C@@H](C)O [NZJU53, N-((2S,3R)-3-hydroxy-1-oxo-1-(dodecylamino)butan-2-yl)-6-hydroxylnaphthoic-2-carboxamide] | 43 ± 4.04 | 33 ± 3.55 | 37.1 ± 1.17 | – | 27.4 ± 2.07 | – | 58.1 ± 4.37
18 | CCCCCCCCCCCCCCNC(=O)[C@@H](NC(=O)c1ccc2cc(O)ccc2c1)[C@@H](C)O [NZJU54, N-((2S,3R)-3-hydroxy-1-oxo-1-(tetradecylamino)butan-2-yl)-6-hydroxylnaphthoic-2-carboxamide] | 23.6 ± 1.16 | 24.4 ± 1.27 | 24.2 ± 0.83 | – | 30.1 ± 3.01 | – | 33.2 ± 1.08
19 | CCCCCCCCCCCCCCCCCCNC(=O)[C@@H](NC(=O)c1ccc2cc(O)ccc2c1)[C@@H](C)O [NZJU55, N-((2S,3R)-3-hydroxy-1-oxo-1-(octadecylamino)butan-2-yl)-6-hydroxylnaphthoic-2-carboxamide] | 73.7 ± 5.21 | 85.8 ± 1.73 | 84.8 ± 4.34 | – | 48.1 ± 4.67 | – | 160 ± 5.86
20 | CCCCCCCCCCCCNC(=O)[C@@H](NS(=O)(=O)c1ccc(C)cc1)[C@@H](C)O [NZJU56, N-((2S,3R)-3-hydroxy-1-oxo-1-(dodecylamino)butan-2-yl)-4-methylbenzsulfonamide] | 25.8 ± 0.52 | 25.2 ± 0.99 | 27.2 ± 0.99 | – | 31.6 ± 4.56 | – | 39.9 ± 2.54
21 | CCCCCCCCCCCCCCCCCCNC(=O)[C@@H](NS(=O)(=O)c1ccc(C)cc1)[C@@H](C)O [NZJU58, N-((2S,3R)-3-hydroxy-1-oxo-1-(octadecylamino)butan-2-yl)-4-methylbenzsulfonamide] | 75.8 ± 9.46 | 34 ± 1.03 | 47.9 ± 5.2 | – | 29.8 ± 2.23 | – | > 200
22 | CCCCCCCCCCCCNC(=O)[C@@H](NS(=O)(=O)c1cccs1)[C@@H](C)O [NZJU59, N-((2S,3R)-3-hydroxy-1-oxo-1-(dodecylamino)butan-2-yl)-2-thiophene sulfonamide] | 25.9 ± 1.21 | 22 ± 0.86 | 20.1 ± 1.65 | – | 30.9 ± 1.28 | – | 41 ± 2.25
23 | CCCCCCCCCCCCCCCCCCNC(=O)[C@@H](NS(=O)(=O)c1cccs1)[C@@H](C)O [NZJU61, N-((2S,3R)-3-hydroxy-1-oxo-1-(octadecylamino)butan-2-yl)-2-thiophene sulfonamide] | > 200 | > 200 | > 200 | – | > 200 | – | > 200
24 | CCCCCCCCCCCCCCCCCCNC(=O)[C@@H](NS(=O)(=O)c1ccc2ccccc2c1)[C@@H](C)O [NZJU63, N-((2S,3R)-3-hydroxy-1-oxo-1-(octadecylamino)butan-2-yl)-2-naphthylsulfonamide] | 19.8 ± 3.12 | 23.7 ± 1.46 | 21.2 ± 0.81 | – | 19.9 ± 3.31 | – | 69.1 ± 9.67
25 | CCCCCCCCCCCCCCNC(=O)[C@@H](NC(=O)C1=C[C@H](O)[C@H](O)[C@@H](O)C1)[C@@H](C)O [NZJU64, (3S,4R,5S)-3,4,5-trihydroxy-N-((2S,3R)-3-hydroxy-1-oxo-1-(tetradecylamino)butan-2-yl)cyclohex-1-enecarboxamide] | 29.9 ± 2.81 | 23.1 ± 2.97 | 33.7 ± 1.28 | – | 24.6 ± 2.04 | – | 47.8 ± 3.43
